# Legend:
# [1] = test system: Streptococcus mutans; test: photodynamic effect of rinsing solution against S. mutans bacterial suspension, photosensitiser concentration series (FIG. 2); assay type: cell-based; details: irradiation 300 s; for microorganism content after irradiation: 17-21 J/cm^2
# Source text: The corresponding comparative value was approx. 3.2·10^7 CFU/ml. The other bars of the graph each show the reduction in the microorganism content when using the (here: single) photosensitiser at different concentrations, including such concentrations that differ from the disclosed subject matter, in the rinsing solution after effective irradiation for 300 s with between 10 and 45 J/cm^2, in the present case between 17 and 21 J/cm^2.
# As the other bars R50, R125 and R250 show, the microorganism content increases again with increasing photosensitiser concentration of 0.5 wt. % (R50), 1.25 wt. % (R125) and 2.5 wt. % (R250), i.e. to approx. 1.6·10^5 CFU/ml, approx. 1.1·10^6 CFU/ml and approx. 2.9·10^6 CFU/ml, respectively. This means that despite the higher concentration of the photosensitiser and the higher number of free radicals to be expected as a result, the efficacy of the disinfection is reduced.
# [2] = absorption spectrum of the photosensitiser (FIG. 1); assay type: physicochemical; details: absorption spectrum A of the photosensitiser in rinsing solution
# Source text: The absorption spectrum A of the photosensitiser used here (dotted line in FIG. 1) has a maximum at a wavelength A of around 445 nm. To activate the photosensitiser, irradiation in the range of this wavelength—or optionally, as in the present example, with a broadband radiation source that also encompasses this range—is therefore effective. […] If more than one photosensitiser is used, this generally results in several absorption maxima to which the radiation source or its radiation spectrum must be adapted.
smiles,measurement,setting,value
"Cc1cc2nc3c(=O)[nH]c(=O)nc-3n(C[C@H](O)[C@H](O)[C@H](O)COP(=O)([O-])O)c2cc1C.[Na+] [riboflavin 5′-phosphate sodium, Riboflavin 5′-phosphate sodium]",microorganism content after irradiation,"[1]; 0.01 wt. % photosensitiser in rinsing solution (bar R01), growth control approx. 3.2·10^7 CFU/ml",approx. 2.1·10^6 CFU/ml
same,reduction of microorganism content versus growth control,[1]; 0.01 wt. % photosensitiser,more than an order of magnitude
same,microorganism content after irradiation,[1]; 0.25 wt. % photosensitiser in rinsing solution (bar R25),approx. 2.0·10^4 CFU/ml
same,microorganism content as fraction of the comparative value,[1]; 0.25 wt. % photosensitiser,less than 1/1000
same,reduction of microorganism content versus growth control,[1]; 0.25 wt. % photosensitiser,more than 3 orders of magnitude
same,microorganism content after irradiation,[1]; 0.5 wt. % photosensitiser (bar R50),approx. 1.6·10^5 CFU/ml
same,microorganism content after irradiation,[1]; 1.25 wt. % photosensitiser (bar R125),approx. 1.1·10^6 CFU/ml
same,microorganism content after irradiation,[1]; 2.5 wt. % photosensitiser (bar R250),approx. 2.9·10^6 CFU/ml
same,absorption maximum wavelength,[2],around 445 nm
